Test results reported in BigSolDB 2.1.

O=[N+]([O-])c1ccc(S(=O)(=O)[O-])cc1.[Na+]
solubility (mole fraction)
Settings | 283.15 K | 288.15 K | 293.15 K | 298.15 K | 303.15 K | 308.15 K | 313.15 K | 318.15 K | 323.15 K
in THF | 0.000109 | 0.000112 | 0.000117 | 0.000122 | 0.000127 | 0.000132 | 0.000138 | 0.000145 | 0.000156
in acetone | 0.012 | 0.014 | 0.0161 | 0.0182 | 0.0206 | 0.0229 | 0.0258 | 0.029 | 0.0323
in cyclohexanone | 0.000906 | 0.000913 | 0.000917 | 0.000927 | 0.000938 | 0.000954 | 0.000967 | 0.000991 | 0.00101
in ethanol | 0.00104 | 0.00118 | 0.00133 | 0.00147 | 0.00164 | 0.0018 | 0.00204 | 0.00232 | 0.0026
in ethyl acetate | 8.84e-05 | 9.96e-05 | 0.000109 | 0.00012 | 0.000131 | 0.000143 | 0.000157 | 0.000175 | 0.000193
in n-butanol | 0.000318 | 0.000405 | 0.000498 | 0.000597 | 0.000699 | 0.000798 | 0.000947 | 0.00111 | 0.00131
